Where no end group is shown, it is not given here. [ ]: non-standard residue; d: D form. Cit = NC(=O)NCCC[C@H](N)C(=O)O
What was measured:
Type in all cases: binding, human
[1] = test system: autoimmune antibodies in sera from patients suffering from rheumatoid arthritis; experiment: ELISA of coupled peptides with RA sera; conditions: for immunological reactivity in ELISA: RA sera; for RA sera (%) positive / RA sera: number of positive sera: n = 134 RA sera, positive = OD450 of 0.2 after deduction of blank; for RA sera: number of positive sera: sera diluted 200 times
Protocol: (§1) Detection by Means of ELISA
Via an N-oxysuccinimide surface the peptides were covalently coupled to the wells of 96-well microtitre plates (Costar amide binding plates) in an amount of 1 ? g/well. Coupling took place for 16 hours at 4EC and pH 9.0. The plates were blocked for 1 hour with 2% bovine serum albumin. The sera were diluted 200 times in a diluent (0.3% BSA, 350 mM NaCl, 10 mM Tris-HCl pH 7.6, 1% vol./vol. Triton X-100, 0.5% w./vol. Na-deoxycholate, 0.1% SDS) supplemented with 10% normal rabbit serum, and incubated for one hour at room temperature. After washing the plates (3 times with PBS containing 0.05 by vol. of Tween® 20), 100 ? l of antihuman IgG conjugated with peroxidase (Dako P214), 1000 times diluted in dilution buffer, was added to the wells. After incubation for 1 hour at room temperature, the plates were washed 3 times with PBS/Tween®, and bound antibodies were detected with tetramethyl benzidine as a substrate. After 10 minutes the reaction was stopped by adding 100 ? l of 2 M sulphuric acid per well. Readout occurred at 450 nm. Sera having an OD450 of 0.2, after deduction of the blank for the respective serum (a well without a coupled peptide), were considered to be positive. […]

[2] = test system: antibodies in control sera from patients suffering from rheumatic diseases other than RA; experiment: ELISA of coupled peptides with control sera; conditions: n = 154; rheumatic diseases other than RA
Protocol: as §1
(§2) Via an N-oxysuccinimide surface the peptides were covalently coupled to the wells of 96-well microtitre plates (Costar amide binding plates) in an amount of 1 ? g/well. Coupling took place for 16 hours at 4EC and pH 9.0. The plates were blocked for 1 hour with 2% bovine serum albumin. The sera were diluted 200 times in a diluent (0.3% BSA, 350 mM NaCl, 10 mM Tris-HCl pH 7.6, 1% vol./vol. Triton X-100, 0.5% w./vol. Na-deoxycholate, 0.1% SDS) supplemented with 10% normal rabbit serum, and incubated for one hour at room temperature. After washing the plates (3 times with PBS containing 0.05 by vol. of Tween® 20), 100 ? l of antihuman IgG conjugated with peroxidase (Dako P214), 1000 times diluted in dilution buffer, was added to the wells. After incubation for 1 hour at room temperature, the plates were washed 3 times with PBS/Tween®, and bound antibodies were detected with tetramethyl benzidine as a substrate. After 10 minutes the reaction was stopped by adding 100 ? l of 2 M sulphuric acid per well. Readout occurred at 450 nm. Sera having an OD450 of 0.2, after deduction of the blank for the respective serum (a well without a coupled peptide), were considered to be positive.
In total, 288 sera from patients suffering from rheumatoid diseases were used, 132 of which were from patients suffering from rheumatoid arthritis.

[3] = test system: antibodies in SLE (systemic lupus erythematosus) sera; experiment: ELISA of coupled peptides with SLE sera; conditions: n = 50
Protocol: as §1, §2

[4] = test system: antibodies in SSC (systemic scleroderma) sera; experiment: ELISA of coupled peptides with SSC sera; conditions: n = 50
Protocol: as §1, §2

[5] = test system: antibodies in pSS (primary Sjögren's syndrome) sera; experiment: ELISA of coupled peptides with pSS sera; conditions: n = 50
Protocol: as §1, §2

[6] = test system: antibodies in PM/DM (polymyositis/dermatomyositis) sera; experiment: ELISA of coupled peptides with PM/DM sera; conditions: n = 50
Protocol: as §1, §2

Sequence	immunological reactivity in ELISA [1]	RA sera (%) positive [1]	RA sera: number of positive sera [1]	control sera (%) positive [2]	control sera: number of positive sera [2]	SLE: number of positive sera [3]	SSC (%) positive [4]	SSC: number of positive sera [4]	pSS (%) positive [5]	pSS: number of positive sera [5]	PM/DM (%) positive [6]	PM/DM: number of positive sera [6]	SLE (%) positive [3]
ESSHGWTGPSTRGRQGSRHE [nf, reference compound]	not	–	–	–	–	–	–	–	–	–	–	–	–
SHQESTAGRSRGRSGRSGS [cfA, reference compound]	did not seem to be immunologically reactive	–	–	–	–	–	–	–	–	–	–	–	–
SHQESTEGRSRGRSGRSGS [cfE, reference compound]	did not seem to be immunologically reactive	–	–	–	–	–	–	–	–	–	–	–	–
SHQESTQGRSRGRSGRSGS [cfQ, reference compound]	did not seem to be immunologically reactive	–	–	–	–	–	–	–	–	–	–	–	–
SHQESTRGRSRGRSGRSGS (Derived from known cDNA sequences of human profilaggrin) [cf, reference compound]	did not seem to be immunologically reactive	–	–	–	–	–	–	–	–	–	–	–	–
SHQESTRGRSRGRSGXSGS (SHQESTRGRSRGRSG[Cit]SGS-NH2; N-terminus assumed; SMILES C[C@@H](O)[C@H](NC(=O)[C@H](CO)NC(=O)[C@H](CCC(=O)O)NC(=O)[C@H](CCC(N)=O)NC(=O)[C@H](Cc1c[nH]cn1)NC(=O)[C@@H](N)CO)C(=O)N[C@@H](CCCNC(=N)N)C(=O)NCC(=O)N[C@@H](CCCNC(=N)N)C(=O)N[C@@H](CO)C(=O)N[C@@H](CCCNC(=N)N)C(=O)NCC(=O)N[C@@H](CCCNC(=N)N)C(=O)N[C@@H](CO)C(=O)NCC(=O)N[C@@H](CCCNC(N)=O)C(=O)N[C@@H](CO)C(=O)NCC(=O)N[C@@H](CO)C(N)=O) [cfc5]	–	48%	64	0.6%	1	0	2%	1	4%	2	2%	1	–
SHQESTRGRSRGXSGRSGS (SHQESTRGRSRG[Cit]SGRSGS-NH2; N-terminus assumed; SMILES C[C@@H](O)[C@H](NC(=O)[C@H](CO)NC(=O)[C@H](CCC(=O)O)NC(=O)[C@H](CCC(N)=O)NC(=O)[C@H](Cc1c[nH]cn1)NC(=O)[C@@H](N)CO)C(=O)N[C@@H](CCCNC(=N)N)C(=O)NCC(=O)N[C@@H](CCCNC(=N)N)C(=O)N[C@@H](CO)C(=O)N[C@@H](CCCNC(=N)N)C(=O)NCC(=O)N[C@@H](CCCNC(N)=O)C(=O)N[C@@H](CO)C(=O)NCC(=O)N[C@@H](CCCNC(=N)N)C(=O)N[C@@H](CO)C(=O)NCC(=O)N[C@@H](CO)C(N)=O) [cfc4]	–	24%	32	1.3%	2	0	–	0	–	0	–	0	–
SHQESTRGRSXGRSGRSGS (SHQESTRGRS[Cit]GRSGRSGS-NH2; N-terminus assumed; SMILES C[C@@H](O)[C@H](NC(=O)[C@H](CO)NC(=O)[C@H](CCC(=O)O)NC(=O)[C@H](CCC(N)=O)NC(=O)[C@H](Cc1c[nH]cn1)NC(=O)[C@@H](N)CO)C(=O)N[C@@H](CCCNC(=N)N)C(=O)NCC(=O)N[C@@H](CCCNC(=N)N)C(=O)N[C@@H](CO)C(=O)N[C@@H](CCCNC(N)=O)C(=O)NCC(=O)N[C@@H](CCCNC(=N)N)C(=O)N[C@@H](CO)C(=O)NCC(=O)N[C@@H](CCCNC(=N)N)C(=O)N[C@@H](CO)C(=O)NCC(=O)N[C@@H](CO)C(N)=O) [cfc3]	–	28%	37	0.6%	2	0	–	0	2%	1	2%	1	–
SHQESTRGXSRGRSGRSGS (SHQESTRG[Cit]SRGRSGRSGS-NH2; N-terminus assumed; SMILES C[C@@H](O)[C@H](NC(=O)[C@H](CO)NC(=O)[C@H](CCC(=O)O)NC(=O)[C@H](CCC(N)=O)NC(=O)[C@H](Cc1c[nH]cn1)NC(=O)[C@@H](N)CO)C(=O)N[C@@H](CCCNC(=N)N)C(=O)NCC(=O)N[C@@H](CCCNC(N)=O)C(=O)N[C@@H](CO)C(=O)N[C@@H](CCCNC(=N)N)C(=O)NCC(=O)N[C@@H](CCCNC(=N)N)C(=O)N[C@@H](CO)C(=O)NCC(=O)N[C@@H](CCCNC(=N)N)C(=O)N[C@@H](CO)C(=O)NCC(=O)N[C@@H](CO)C(N)=O) [cfc2]	–	20%	27	2.6%	4	1	–	0	2%	1	2%	1	2%
SHQESTXGRSRGRSGXSGS (SHQEST[Cit]GRSRGRSG[Cit]SGS-NH2; N-terminus assumed; SMILES C[C@@H](O)[C@H](NC(=O)[C@H](CO)NC(=O)[C@H](CCC(=O)O)NC(=O)[C@H](CCC(N)=O)NC(=O)[C@H](Cc1c[nH]cn1)NC(=O)[C@@H](N)CO)C(=O)N[C@@H](CCCNC(N)=O)C(=O)NCC(=O)N[C@@H](CCCNC(=N)N)C(=O)N[C@@H](CO)C(=O)N[C@@H](CCCNC(=N)N)C(=O)NCC(=O)N[C@@H](CCCNC(=N)N)C(=O)N[C@@H](CO)C(=O)NCC(=O)N[C@@H](CCCNC(N)=O)C(=O)N[C@@H](CO)C(=O)NCC(=O)N[C@@H](CO)C(N)=O) [cfc9]	–	42%	57	0.6%	1	0	–	0	4%	2	–	0	–
TGPSTRGRQGSXHE (TGPSTRGRQGS[Cit]HE-NH2; N-terminus assumed; SMILES C[C@@H](O)[C@H](N)C(=O)NCC(=O)N1CCC[C@H]1C(=O)N[C@@H](CO)C(=O)N[C@H](C(=O)N[C@@H](CCCNC(=N)N)C(=O)NCC(=O)N[C@@H](CCCNC(=N)N)C(=O)N[C@@H](CCC(N)=O)C(=O)NCC(=O)N[C@@H](CO)C(=O)N[C@@H](CCCNC(N)=O)C(=O)N[C@@H](Cc1c[nH]cn1)C(=O)N[C@@H](CCC(=O)O)C(N)=O)[C@@H](C)O) [nfc1]	–	10%	–	–	–	–	–	–	–	–	–	–	–
